# Results as given in patent publication US20080140138A1, “Inhibition of inflammatory cytokine production by stimulation of brain muscarinic receptors” (priority 2002, published 2008).
# Counter-ions that a name gives are not always drawn.
# Assays:
# [1] = system: carrageenan-induced hindpaw edema; experiment: Carrageenan-induced hindpaw edema; assay type: in vivo, Lewis rats
# Method: Method of determining CNI-1493 receptor binding. CNI-1493 was tested at a single concentration (10 μM) in a panel of receptor binding assays by NovaScreen Biosciences Corporation (Hanover, Md.). Values were expressed as the percent inhibition of specific binding, and represented the average of duplicate tubes. Method of stereotactic intracerebroventricular injections. A rat model of intracerebroventricular (i.c.v.) injections was established in order to be able to directly deliver pharmacological agents into the brain of rats. This was necessary in order to separate drug effects on peripheral inflammation that occurred through central versus peripheral mechanisms. Lewis rats were anaesthetized with urethane (1 g/kg, i.p.) and xylazine (15 mg/rat, i.m. (intramuscular)). Rats were then placed in a stereotactic head frame (Stoelting, Wood Dale, Ill., USA). The incisor bar was adjusted until the plane defined by the lambda and bregma was parallel to the base plate. For i.c.v. injections the needle of a Hamilton syringe (25 μl) was positioned stereotactically above the lateral ventricle (0.2 mm and 1.5 mm posterior to bregma, 3.2 mm below the dura.) Solutions of the drugs tested were prepared in sterile endotoxin-free water, at the specified concentrations, and a 10-μl injection/rat was administered over 2 min, 1 h prior to either carrageenan injection, or to LPS.
# The tested drugs, in either the carrageenan and/or LPS experiments, were: saline control; fluoxetine hydrochloride, (also known as Prozak) (0.01 mg/100 g); muscarine (50 μg/rat, 5 μg/rat, 0.5 μg/rat, 0.05 μg/rat, 0.005 μg/rat); 4-(N-[3-chlorophenyl]carbamoyloxy)-2-butynyltrimethylammonium chloride (also known as McN-A-343) (5 μg/rat); Muscarinic Toxin-3, (also known as MT-3) from Dendroaspis angusticeps snake venom (0.37 μg/rat); nicotine (10 μg/rat); CNI-1493 (1 μg/kg, 50 μg/rat); atropine (1 μg/kg, 5 μg/rat); CNI-1493 plus atropine (1 μg/kg of each of the drugs; 50 μg/rat, 5 μg/rat respectively); naloxone hydrochloride (2 μg/rat), CNI-1493 plus naloxone (50 μg/rat+5 μg/rat respectively); and morphine (20 μg/rat).
# Method of carrageenan-induced hindpaw edema. Paw edema was induced in anaesthetized rats by injection of 1% solution of 1-carrageenan (100 μl) into the plantar surface of the left hindpaw. The right hindpaw was injected with the same volume of saline alone (as control). The thickness of the carrageenan-treated and saline-treated hindpaw was measured using a caliper at 3 h post carrageenan, and the difference between paw thickness calculated as an index of inflammation (paw swelling). Method of LPS injections and TNF determination. LPS (15 mg/kg, i.v.) was injected in the tail vein 1 h after drug injection. Blood was obtained 2 h post LPS injection by paraorbital bleeding. Serum TNF concentrations were determined by an L929 bioactivity assay. Method of assessing TNF by the L929 bioactivity assay. L929 cells were suspended in Dulbecco's minimal Eagle's medium (DMEM; GibcoBRL) supplemented with fetal bovine serum (10%; Hyclone) and penicillin/streptomycin (0.5%; Sigma Chemical Co.), and plated at 2×10^4 cells per well in 96-well flat-bottomed microtiter plates. After 24 h, media were respirated and replaced with medium containing cycloheximide (10 μg/ml; Sigma Chemical Co.) and the samples to be assayed/TNF standards. Plates were incubated overnight, at which time cell viability as a function of TNF concentration was assessed by the MTT assay. Absorbance values were converted to units per milliliter by comparison with a standard curve for rat TNF.
# In a third set of experiments, rats were injected by i.c.v. means with either saline (n=4), CNI-1493 (5 μg/rat, n=3), CNI-1493 plus atropine (5 μg/rat each), or atropine (5 μg/rat). Carrageenan was given to the animals 1 h later, and paw edema was determined 3 h post carrageenan. […]
# LPS-induced serum TNF = LPS-induced serum TNF after i.c.v. drug injection, L929 bioactivity assay; assay type: in vivo, Lewis rats; settings: i.c.v.; for effect in reducing LPS-induced serum TNF levels: nicotine 10 μg/rat, prozak 0.01 mg/10 g, LPS 15 mg/kg i.v. 1 h later
# Method: Method of stereotactic intracerebroventricular injections. […] Lewis rats were anaesthetized with urethane (1 g/kg, i.p.) and xylazine (15 mg/rat, i.m. (intramuscular)). Rats were then placed in a stereotactic head frame (Stoelting, Wood Dale, Ill., USA). The incisor bar was adjusted until the plane defined by the lambda and bregma was parallel to the base plate. For i.c.v. injections the needle of a Hamilton syringe (25 μl) was positioned stereotactically above the lateral ventricle (0.2 mm and 1.5 mm posterior to bregma, 3.2 mm below the dura.) Solutions of the drugs tested were prepared in sterile endotoxin-free water, at the specified concentrations, and a 10-μl injection/rat was administered over 2 min, 1 h prior to either carrageenan injection, or to LPS.
# In one set of experiments, rats were injected by i.c.v. means with either saline (n=1), CNI-1493 (5 μg/rat, n=3), CNI-1493 plus atropine (5 μg/rat each), or atropine (5 μg/rat). LPS (15 mg/kg, i.v.) was given 1 h later. Blood was collected 2 h post LPS administration. Serum TNF was determined by the L929 assay.
# [2] = system: carrageenan-induced paw edema; settings: low doses, direct administration to the brain; cited from earlier work
# LPS-induced TNF = LPS-induced TNF in serum and tissues after muscarine, ELISA; assay type: in vivo, rats; settings: for LPS-induced heart TNF levels: heart tissue
# Method: Methods of stereotactic intracerebroventricular injection of muscarine into rats and LPS injections were as described in Example 1. TNF levels in serum and tissues were determined using an enzyme-inked immunosorbent assay (ELISA) according to the manufacturere's instructions (R & D Systems (Minneapolis, Minn.)).
# Rats were injected by i.c.v. means with either saline (control) or muscarine (0.005 μg/kg body weight, 0.5 μg/kg body weight, 5.0 μg/kg body weight, or 50 μg/kg body weight). LPS was administered 1 hour later. Two hours after LPS administration the rats were sacrificed and blood, heart tissue, and spleen tissue were isolated from the rats. As shown in FIGS. 9A-9C, i.c.v. administration of muscarine inhibited LPS-induced serum, heart, and spleen (peripheral) TNF levels.
# Methods of LPS injections were as described in Example 1. Determination of serum and tissue TNF levels were as described in Example 4. Muscarine (or control saline) was intravenously injected into rats at concentrations of 0.05 μg/kg body weight, 0.5 μg/kg body weight, or 5.0 μg/kg body weight.
# Rats were injected by i.v. means with either saline (control) or muscarine (0.05 μg/kg body weight, 0.5 μg/kg body weight, or 5.0 μg/kg body weight). LPS was administered 1 hour later. Two hours after LPS administration the rats were sacrificed and blood, liver tissue, heart tissue, and spleen tissue were isolated from the rats and assayed for TNF concentrations. As shown in FIGS. 10A-10D, intravenous administration of muscarine had no effect on LPS-induced serum, liver, heart, and spleen TNF levels.
# [3] = muscarine i.c.v. 0.005-50 μg/kg body weight
# [4] = muscarine i.v. 0.05, 0.5, 5.0 μg/kg body weight
structure (smiles),measurement,setting,value
"C[N+](C)(C)CC#CCOC(=O)Nc1cccc(Cl)c1.[Cl-] [McN-A-343, 4-(N-[3-chlorophenyl]carbamoyloxy)-2-butynyltrimethylammonium chloride]","inhibition of paw edema, i.c.v. compared with i.p. administration",[1]; 5 μg/rat i.c.v. versus 5 mg/kg i.p.,comparable effect on inhibition of carrageenan-induced paw edema as a higher dose administered intraperitoneally
same,inhibition of carrageenan-induced paw edema,"[1]; i.c.v., McN-A-343 5 μg/rat, MT-3 0.37 μg/rat",significantly inhibits
CN1[C@@H]2CC[C@H]1C[C@@H](OC(=O)C(CO)c1ccccc1)C2 (stereo partly shown) [atropine],effect of atropine on CNI-1493 inhibition of paw edema,"[1]; CNI-1493 plus atropine, 5 μg/rat each, i.c.v.",reverses the effect
same,effect of atropine on CNI-1493 inhibition of LPS-induced serum TNF,"LPS-induced serum TNF; CNI-1493 plus atropine, 5 μg/rat each",reversed the inhibitory effect of CNI-1493 to the TNF level of atropine alone
C[N+](C)(C)CCOC(N)=O [carbachol],effect on carrageenan-induced paw edema,[2],attenuation of paw edema
C[C@@H]1O[C@H](C[N+](C)(C)C)C[C@H]1O [muscarine],effect of vagotomy on muscarine inhibition of paw edema,"[1]; muscarine 0.5 μg/rat i.c.v., bilateral cervical vagotomy, P=0.015 SAL v. MUS, P=0.039 MUS v. MUS-VGX",Vagotomy clearly abrogates the inhibitory effects
same,inhibition of carrageenan-induced paw edema,"[1]; muscarine i.c.v. 5, 0.5, 0.05, 0.005 μg/rat",significantly inhibits carrageenan-induced paw edema in a dose-dependent manner
same,LPS-induced heart TNF levels,LPS-induced TNF; [3],inhibited
same,LPS-induced serum TNF levels,LPS-induced TNF; [3],inhibited
same,LPS-induced spleen TNF levels,LPS-induced TNF; [3],inhibited
same,LPS-induced heart TNF levels,LPS-induced TNF; [4],no effect
same,LPS-induced liver TNF levels,"LPS-induced TNF; muscarine i.v. 0.05, 0.5, 5.0 μg/kg body weight, liver",no effect
same,LPS-induced serum TNF levels,LPS-induced TNF; [4],no effect
same,LPS-induced spleen TNF levels,LPS-induced TNF; [4],no effect
CN1CCCC1c1cccnc1 (stereo not shown) [nicotine],effect in reducing LPS-induced serum TNF levels,LPS-induced serum TNF,Neither nicotine nor prozak had any effect
"CNCCC(Oc1ccc(C(F)(F)F)cc1)c1ccccc1 (stereo not shown) [prozak, fluoxetine hydrochloride]",effect in reducing LPS-induced serum TNF levels,LPS-induced serum TNF,Neither nicotine nor prozak had any effect
